Reference: US20090131470A1, “PYRAZOLE-SUBSTITUTED BENZIMIDAZOLE DERIVATIVES FOR USE IN THE TREATMENT OF CANCER AND AUTOIMMUNE DISORDERS” (priority 2005, published 2009)

Key:
Assay type in all cases: biochemical
[1] = molecular target: T1, PKA (Homo sapiens, UniProt P17612); experiment: PKA kinase assay (Kemptide substrate); conditions: 100 μM ATP
T1 construct: purchased Upstate

[2] = molecular target: IGF-IR (Homo sapiens, UniProt P08069); experiment: Kinase selectivity screening (example 14)
[3] = molecular target: PDGFRa (Homo sapiens, UniProt P16234); experiment: Kinase selectivity screening (example 14)
PDGFRa, sequence (P16234 24-1089): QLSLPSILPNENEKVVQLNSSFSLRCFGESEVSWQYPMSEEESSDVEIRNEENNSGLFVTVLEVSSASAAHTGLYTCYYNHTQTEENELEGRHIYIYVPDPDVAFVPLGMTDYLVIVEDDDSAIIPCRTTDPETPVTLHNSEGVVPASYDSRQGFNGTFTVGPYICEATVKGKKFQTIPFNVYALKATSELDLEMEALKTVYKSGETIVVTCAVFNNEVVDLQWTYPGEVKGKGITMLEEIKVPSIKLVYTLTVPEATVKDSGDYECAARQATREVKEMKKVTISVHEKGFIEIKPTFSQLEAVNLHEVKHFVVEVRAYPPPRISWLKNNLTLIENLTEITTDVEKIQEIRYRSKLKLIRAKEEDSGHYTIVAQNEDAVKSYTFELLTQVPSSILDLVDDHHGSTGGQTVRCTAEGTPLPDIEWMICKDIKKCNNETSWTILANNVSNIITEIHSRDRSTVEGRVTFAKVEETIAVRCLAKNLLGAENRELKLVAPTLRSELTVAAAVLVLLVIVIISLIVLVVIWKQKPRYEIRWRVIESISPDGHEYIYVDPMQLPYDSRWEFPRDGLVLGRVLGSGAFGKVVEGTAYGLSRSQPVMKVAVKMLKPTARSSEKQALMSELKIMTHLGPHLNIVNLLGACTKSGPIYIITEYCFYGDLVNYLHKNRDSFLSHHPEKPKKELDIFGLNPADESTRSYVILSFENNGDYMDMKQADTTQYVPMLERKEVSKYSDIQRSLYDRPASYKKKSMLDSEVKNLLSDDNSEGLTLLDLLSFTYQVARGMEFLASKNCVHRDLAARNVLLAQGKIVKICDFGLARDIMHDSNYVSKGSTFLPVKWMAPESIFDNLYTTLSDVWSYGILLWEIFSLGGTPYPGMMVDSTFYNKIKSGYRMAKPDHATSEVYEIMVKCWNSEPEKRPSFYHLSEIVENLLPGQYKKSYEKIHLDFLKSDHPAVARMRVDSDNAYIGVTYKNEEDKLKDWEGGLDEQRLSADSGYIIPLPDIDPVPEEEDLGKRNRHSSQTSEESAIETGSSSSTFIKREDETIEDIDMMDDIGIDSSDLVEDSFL

[4] = molecular target: CDK-2 enzyme, complexed with cyclin A (Homo sapiens, UniProt P24941); experiment: CDK2 kinase assay (33P peptide phosphorylation); conditions: 0.1 mM ATP, cyclin A complex
[5] = molecular target: FGFR3 (Homo sapiens, UniProt P22607); experiment: Kinase selectivity screening (example 14)
FGFR3, sequence (P22607 23-806, species assumed): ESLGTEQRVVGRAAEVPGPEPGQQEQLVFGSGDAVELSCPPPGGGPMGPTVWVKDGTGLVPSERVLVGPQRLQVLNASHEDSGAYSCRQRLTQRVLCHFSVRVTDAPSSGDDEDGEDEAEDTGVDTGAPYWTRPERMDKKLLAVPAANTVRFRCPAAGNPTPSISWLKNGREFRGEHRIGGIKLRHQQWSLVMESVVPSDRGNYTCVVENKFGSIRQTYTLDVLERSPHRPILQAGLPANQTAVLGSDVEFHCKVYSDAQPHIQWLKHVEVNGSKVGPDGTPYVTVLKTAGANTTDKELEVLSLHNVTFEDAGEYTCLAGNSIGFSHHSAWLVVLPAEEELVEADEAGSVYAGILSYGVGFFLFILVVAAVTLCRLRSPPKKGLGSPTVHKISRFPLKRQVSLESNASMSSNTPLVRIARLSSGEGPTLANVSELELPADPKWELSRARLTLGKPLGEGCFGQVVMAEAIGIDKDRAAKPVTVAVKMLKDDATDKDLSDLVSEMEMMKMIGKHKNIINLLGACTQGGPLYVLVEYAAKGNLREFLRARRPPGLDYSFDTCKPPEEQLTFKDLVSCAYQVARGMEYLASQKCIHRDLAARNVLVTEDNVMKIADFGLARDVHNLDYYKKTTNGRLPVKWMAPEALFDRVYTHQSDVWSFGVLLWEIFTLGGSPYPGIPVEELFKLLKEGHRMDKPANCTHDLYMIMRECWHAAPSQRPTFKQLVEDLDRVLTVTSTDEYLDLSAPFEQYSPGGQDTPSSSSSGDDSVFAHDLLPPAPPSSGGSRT

[6] = molecular target: T2, PDK1 (Homo sapiens, UniProt O15530); experiment: PDK1 kinase assay (33P peptide phosphorylation); conditions: 0.01 mM ATP, 60 min at 30° C.; read-out: PDK-1 IC50
T2 sequence (O15530 1-556): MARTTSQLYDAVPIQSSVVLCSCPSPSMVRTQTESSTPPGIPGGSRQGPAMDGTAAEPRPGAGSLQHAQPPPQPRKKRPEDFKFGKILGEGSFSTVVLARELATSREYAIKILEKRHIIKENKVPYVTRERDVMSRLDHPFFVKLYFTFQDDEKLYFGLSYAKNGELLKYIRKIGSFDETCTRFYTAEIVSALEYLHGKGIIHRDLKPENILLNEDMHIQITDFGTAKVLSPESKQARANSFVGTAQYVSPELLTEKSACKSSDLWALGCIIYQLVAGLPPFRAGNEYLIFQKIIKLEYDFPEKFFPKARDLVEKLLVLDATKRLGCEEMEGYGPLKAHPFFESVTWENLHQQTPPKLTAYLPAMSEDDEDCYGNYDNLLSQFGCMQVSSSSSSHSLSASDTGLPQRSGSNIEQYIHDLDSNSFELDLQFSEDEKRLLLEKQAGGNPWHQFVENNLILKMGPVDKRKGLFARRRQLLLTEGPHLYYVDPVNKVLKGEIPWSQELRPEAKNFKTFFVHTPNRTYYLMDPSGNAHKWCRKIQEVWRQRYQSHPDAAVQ

[7] = molecular target: Flt1 (Homo sapiens, UniProt P17948); experiment: Kinase selectivity screening (example 14)
[8] = molecular target: FGFR1 (Homo sapiens, UniProt P11362); experiment: Kinase selectivity screening (example 14)
FGFR1, sequence (P11362 22-822, species assumed): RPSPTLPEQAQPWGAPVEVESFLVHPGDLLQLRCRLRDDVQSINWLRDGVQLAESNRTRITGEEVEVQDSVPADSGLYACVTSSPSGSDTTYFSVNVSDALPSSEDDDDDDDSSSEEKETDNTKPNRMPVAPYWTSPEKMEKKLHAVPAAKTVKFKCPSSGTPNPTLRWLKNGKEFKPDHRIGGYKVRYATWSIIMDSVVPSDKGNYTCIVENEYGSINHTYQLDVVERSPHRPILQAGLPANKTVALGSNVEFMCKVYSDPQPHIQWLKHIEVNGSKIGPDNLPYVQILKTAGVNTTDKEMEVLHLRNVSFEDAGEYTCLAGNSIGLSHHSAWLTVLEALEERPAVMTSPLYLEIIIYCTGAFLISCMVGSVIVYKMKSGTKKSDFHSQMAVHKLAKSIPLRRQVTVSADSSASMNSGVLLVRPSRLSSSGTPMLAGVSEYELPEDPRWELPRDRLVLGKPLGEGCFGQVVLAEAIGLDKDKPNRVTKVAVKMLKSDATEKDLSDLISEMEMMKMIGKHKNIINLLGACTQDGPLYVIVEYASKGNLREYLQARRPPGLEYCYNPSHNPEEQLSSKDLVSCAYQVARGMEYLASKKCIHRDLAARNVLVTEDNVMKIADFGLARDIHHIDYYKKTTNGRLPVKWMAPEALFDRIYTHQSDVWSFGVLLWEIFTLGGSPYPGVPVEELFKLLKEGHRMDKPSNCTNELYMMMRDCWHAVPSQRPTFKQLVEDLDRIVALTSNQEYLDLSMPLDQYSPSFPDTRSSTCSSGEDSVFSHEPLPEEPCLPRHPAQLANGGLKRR

[9] = molecular target: FGFR2 (Homo sapiens, UniProt P21802); experiment: Kinase selectivity screening (example 14)
FGFR2, sequence (P21802 22-821, species assumed): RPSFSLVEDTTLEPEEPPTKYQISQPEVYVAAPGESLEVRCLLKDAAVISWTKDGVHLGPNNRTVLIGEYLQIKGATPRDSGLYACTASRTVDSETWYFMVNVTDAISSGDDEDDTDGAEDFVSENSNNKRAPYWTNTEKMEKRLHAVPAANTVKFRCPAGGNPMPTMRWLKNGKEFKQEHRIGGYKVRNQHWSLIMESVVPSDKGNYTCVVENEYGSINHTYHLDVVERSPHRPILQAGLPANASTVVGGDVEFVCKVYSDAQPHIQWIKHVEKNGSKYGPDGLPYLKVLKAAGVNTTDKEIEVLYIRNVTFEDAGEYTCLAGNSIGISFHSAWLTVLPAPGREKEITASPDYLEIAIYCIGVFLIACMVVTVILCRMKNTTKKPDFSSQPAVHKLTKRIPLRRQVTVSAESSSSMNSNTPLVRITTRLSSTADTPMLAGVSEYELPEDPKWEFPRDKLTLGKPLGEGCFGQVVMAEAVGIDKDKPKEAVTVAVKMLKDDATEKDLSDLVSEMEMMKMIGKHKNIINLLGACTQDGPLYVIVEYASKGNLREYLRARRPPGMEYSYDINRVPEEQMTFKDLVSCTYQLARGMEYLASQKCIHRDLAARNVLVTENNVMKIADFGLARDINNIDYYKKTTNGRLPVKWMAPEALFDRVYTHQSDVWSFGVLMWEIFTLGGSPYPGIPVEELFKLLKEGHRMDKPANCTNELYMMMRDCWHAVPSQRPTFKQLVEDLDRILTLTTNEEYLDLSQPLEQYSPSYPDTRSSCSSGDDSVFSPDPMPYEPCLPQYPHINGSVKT

[10] = molecular target: Tie2 (Homo sapiens, UniProt Q02763); experiment: Kinase selectivity screening (example 14)
Tie2, sequence (Q02763 23-1124, species assumed): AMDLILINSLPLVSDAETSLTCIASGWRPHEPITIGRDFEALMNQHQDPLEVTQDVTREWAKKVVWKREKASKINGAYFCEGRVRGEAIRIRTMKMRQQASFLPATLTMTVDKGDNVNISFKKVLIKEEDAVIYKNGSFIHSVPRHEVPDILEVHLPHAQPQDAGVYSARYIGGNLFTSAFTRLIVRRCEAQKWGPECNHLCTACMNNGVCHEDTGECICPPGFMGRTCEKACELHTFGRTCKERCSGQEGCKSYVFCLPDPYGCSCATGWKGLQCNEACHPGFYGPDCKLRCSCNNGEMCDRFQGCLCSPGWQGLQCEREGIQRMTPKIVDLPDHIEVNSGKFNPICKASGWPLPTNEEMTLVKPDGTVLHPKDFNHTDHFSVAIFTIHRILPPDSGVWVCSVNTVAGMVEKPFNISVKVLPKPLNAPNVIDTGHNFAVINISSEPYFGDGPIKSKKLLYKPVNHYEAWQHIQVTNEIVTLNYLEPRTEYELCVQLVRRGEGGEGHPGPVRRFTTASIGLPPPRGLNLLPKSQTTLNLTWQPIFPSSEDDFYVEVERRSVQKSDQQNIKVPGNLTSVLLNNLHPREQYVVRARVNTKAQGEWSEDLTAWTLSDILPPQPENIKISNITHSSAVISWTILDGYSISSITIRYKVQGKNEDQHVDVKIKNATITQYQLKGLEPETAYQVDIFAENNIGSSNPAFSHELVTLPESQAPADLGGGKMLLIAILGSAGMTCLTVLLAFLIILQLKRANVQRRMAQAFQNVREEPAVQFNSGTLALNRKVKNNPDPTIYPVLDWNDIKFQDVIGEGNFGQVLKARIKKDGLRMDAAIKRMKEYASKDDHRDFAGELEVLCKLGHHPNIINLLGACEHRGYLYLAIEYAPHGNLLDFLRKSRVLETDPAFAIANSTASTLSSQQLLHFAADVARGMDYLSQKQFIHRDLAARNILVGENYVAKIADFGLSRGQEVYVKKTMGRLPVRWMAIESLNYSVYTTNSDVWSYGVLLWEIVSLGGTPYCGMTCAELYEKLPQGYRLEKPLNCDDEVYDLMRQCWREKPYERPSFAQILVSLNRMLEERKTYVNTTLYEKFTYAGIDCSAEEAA

## Cc1[nH]nc(-c2nc3cc4cn[nH]c4cc3[nH]2)c1C(=O)NC1CCNCC1 [Example 14]
[1]
  IC50: 7.2 µM
[2]
  selectivity versus IGF-IR: > 20 fold
[3]
  selectivity versus PDGFRa: > 20 fold
[4]
  IC50: 5.11 µM
[5]
  selectivity versus FGFR3: > 20 fold
[6]
  IC50: 0.01 µM
[7]
  selectivity versus Flt1: > 20 fold
[8]
  selectivity versus FGFR1: > 20 fold
[9]
  selectivity versus FGFR2: > 20 fold
[10]
  selectivity versus Tie2: > 20 fold
